Experimental data published in patent US20120035206A1, “PREPARATION AND APPLICATION OF NOVEL ANTIBACTERIAL AND ANTICANCER COMPOUNDS AND THEIR DERIVATIVES” (priority 2009, published 2012).
Converted amounts (≈) assume the structure as drawn.

Key:
Assay type in all cases: cell-based
A. niger = assay: In vitro antibacterial (antifungal) test, two-fold dilution MIC; details: Aspergillus niger, RPMI 1640, culture 2-7 days
C. Krusei = assay: as above; details: Pichia kudriavzevii, RPMI 1640, culture 2-7 days
C. albicans = assay: as above; details: Candida albicans, read-out: MIC C. albicas
C. glabrata = assay: as above; details: Nakaseomyces glabratus, RPMI 1640, culture 2-7 days
C. neoformans = assay: as above; details: Cryptococcus neoformans, RPMI 1640, culture 2-7 days
C. parapsilosis = assay: as above; details: Lodderomyces parapsilosis, RPMI 1640, culture 2-7 days
C. tropicalis = assay: as above; details: Candida tropicalis, RPMI 1640, culture 2-7 days
E. floccosum = assay: as above; details: Epidermophyton floccosum, RPMI 1640, culture 2-7 days
M. gypseum = assay: as above; details: Nannizzia gypsea, RPMI 1640, culture 2-7 days
S. schenekn = assay: as above; details: RPMI 1640, culture 2-7 days
[1] = system: Fusarium oxysporum vasinfectum; assay: as above; details: RPMI 1640, culture 2-7 days
Setosphaeria turcica = assay: as above; details: Exserohilum turcicum, RPMI 1640, culture 2-7 days
Terchoderma = assay: as above; details: Trichoderma, RPMI 1640, culture 2-7 days
gibberella = assay: as above; details: RPMI 1640, culture 2-7 days
A375 = assay: In vitro anticancer MTT experiment; details: Homo sapiens, A-375, concentration 5 ug/ml, 48 h or 72 h, read-out: inhibition ratio A375
Method in brief: (§1)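 Human cancer cell lines in RPMI 1640 with 10% fetal calf serum and 0.01% L-glutamine were seeded at 6000-7000 cells per well, settled 12 h, then exposed to compound for 48 h or 72 h at 37° C., 5% CO2. Values are percent inhibition at 5 ug/ml by MTT, A570.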

AS24391 = assay: In vitro anticancer MTT experiment; details: concentration 5 ug/ml, 48 h or 72 h, read-out: inhibition ratio AS24391
Method in brief: as §1

B01092 = assay: In vitro anticancer MTT experiment; details: concentration 5 ug/ml, 48 h or 72 h, read-out: inhibition ratio B01092
Method in brief: as §1

CRL-1435PC-3 = assay: In vitro anticancer MTT experiment; details: concentration 5 ug/ml, 48 h or 72 h, read-out: inhibition ratio CRL-1435PC-3
Method in brief: as §1

CRL-1469PANC-1 = assay: In vitro anticancer MTT experiment; details: concentration 5 ug/ml, 48 h or 72 h, read-out: inhibition ratio CRL-1469PANC-1
Method in brief: as §1

CRL-2233SNU-398 = assay: In vitro anticancer MTT experiment; details: concentration 5 ug/ml, 48 h or 72 h, read-out: inhibition ratio CRL-2233SNU-398
Method in brief: as §1

FTC 133 = assay: In vitro anticancer MTT experiment; details: Homo sapiens, concentration 5 ug/ml, 48 h or 72 h, read-out: inhibition ratio FTC 133
Method in brief: as §1

HTB-131MDA-MB-453 = assay: In vitro anticancer MTT experiment; details: concentration 5 ug/ml, 48 h or 72 h, read-out: inhibition ratio HTB-131MDA-MB-453
Method in brief: as §1

HTB-38HT-29 = assay: In vitro anticancer MTT experiment; details: concentration 5 ug/ml, 48 h or 72 h, read-out: inhibition ratio HTB-38HT-29
Method in brief: as §1

HTB-94 = assay: In vitro anticancer MTT experiment; details: concentration 5 ug/ml, 48 h or 72 h, read-out: inhibition ratio HTB-94
Method in brief: as §1

HTB-95637 = assay: In vitro anticancer MTT experiment; details: concentration 5 ug/ml, 48 h or 72 h, read-out: inhibition ratio HTB-95637
Method in brief: as §1

L1210 = assay: In vitro anticancer MTT experiment; details: Mus musculus, concentration 5 ug/ml, 48 h or 72 h, read-out: inhibition ratio L1210
Method in brief: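 For this screen, trypsinised log-phase cells were plated and pre-incubated 12 h before receiving compound for 48 h or 72 h; MTT was then added for 4 h and formazan dissolved in DMSO. Percent inhibition at 5 ug/ml was derived from 570 nm absorbance relative to untreated cells and blank medium.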

SGC7901 = assay: In vitro anticancer MTT experiment; details: Homo sapiens, SGC-7901, concentration 5 ug/ml, 48 h or 72 h, read-out: inhibition ratio SGC7901
Method in brief: as §1

L428 = assay: In vitro anticancer MTT experiment; details: Homo sapiens, L-428, concentration 5 ug/ml, 48 h or 72 h, read-out: inhibition ratio L428
Method in brief: as §1

SMILES	MIC (C. Krusei) [µg/mL]	MIC (C. albicans) [µg/mL]	MIC (C. glabrata) [µg/mL]	MIC (C. neoformans) [µg/mL]	MIC (C. parapsilosis) [µg/mL]	MIC (C. tropicalis) [µg/mL]	MIC (E. floccosum) [µg/mL]	MIC (M. gypseum) [µg/mL]	MIC (S. schenekn) [µg/mL]	MIC [1] [µg/mL]	MIC (Setosphaeria turcica) [µg/mL]	inhibition at 5 µg/mL (AS24391) [%]	inhibition at 5 µg/mL (B01092) [%]	inhibition at 5 µg/mL (CRL-1469PANC-1) [%]	inhibition at 5 µg/mL (FTC 133) [%]	inhibition at 5 µg/mL (HTB-131MDA-MB-453) [%]	inhibition at 5 µg/mL (HTB-38HT-29) [%]	inhibition at 5 µg/mL (HTB-95637) [%]	inhibition at 5 µg/mL (L1210) [%]	inhibition at 5 µg/mL (SGC7901) [%]	further results
Cc1ccc2c(c1)C(=O)CCS2 [Compound 1]	32 (≈ 180 µM)	64 (≈ 359 µM)	64 (≈ 359 µM)	64 (≈ 359 µM)	64 (≈ 359 µM)	32 (≈ 180 µM)	32 (≈ 180 µM)	64 (≈ 359 µM)	32 (≈ 180 µM)	–	–	–	–	–	–	–	–	–	–	–	MIC (A. niger): 32 µg/mL (≈ 180 µM)
Cc1ccc2c(c1)C(=O)/C(=C\O)CS2 [Compound 2]	32 (≈ 155 µM)	32 (≈ 155 µM)	32 (≈ 155 µM)	32 (≈ 155 µM)	64 (≈ 310 µM)	32 (≈ 155 µM)	32 (≈ 155 µM)	32 (≈ 155 µM)	16 (≈ 77.6 µM)	–	–	–	–	–	–	–	–	–	–	–	MIC (A. niger): 64 µg/mL (≈ 310 µM)
Cc1cc2c(cc1F)SC/C(=C\Cl)C2=O [Compound 6, (Z)-3-(chloromethylene)-7-fluoro-6-methylthiochroman-4-one]	8 (≈ 33 µM)	32 (≈ 132 µM)	8 (≈ 33 µM)	4 (≈ 16.5 µM)	4 (≈ 16.5 µM)	16 (≈ 65.9 µM)	32 (≈ 132 µM)	4 (≈ 16.5 µM)	16 (≈ 65.9 µM)	16 (≈ 65.9 µM)	4 (≈ 16.5 µM)	59.8	57.9	53.8	59.3	60.7	44.2	48	76.9	45.3	MIC (Terchoderma): 16 µg/mL (≈ 65.9 µM); MIC (gibberella): 8 µg/mL (≈ 33 µM); inhibition at 5 µg/mL (A375): 65.8%; inhibition at 5 µg/mL (CRL-1435PC-3): 56.7%; inhibition at 5 µg/mL (CRL-2233SNU-398): 60.1%; inhibition at 5 µg/mL (HTB-94): 45.4%
O=C1/C(=C/Br)CSc2ccc(Cl)cc21 [Compound 10, (Z)-3-(bromomethylene)-6-chlorothiochroman-4-one]	16 (≈ 55.3 µM)	64 (≈ 221 µM)	64 (≈ 221 µM)	4 (≈ 13.8 µM)	8 (≈ 27.6 µM)	32 (≈ 111 µM)	64 (≈ 221 µM)	64 (≈ 221 µM)	64 (≈ 221 µM)	64 (≈ 221 µM)	32 (≈ 111 µM)	56.7	69	45.1	45.6	53.5	54.7	40.8	84.4	56.5	MIC (Terchoderma): 16 µg/mL (≈ 55.3 µM); MIC (gibberella): 32 µg/mL (≈ 111 µM); inhibition at 5 µg/mL (CRL-1435PC-3): 46.6%; inhibition at 5 µg/mL (CRL-2233SNU-398): 45.6%; inhibition at 5 µg/mL (HTB-94): 46.8%; inhibition at 5 µg/mL (L428): 50.6%
O=C1/C(=C/Br)CSc2ccc(F)cc21 [Compound 11, (Z)-3-(bromomethylene)-6-fluorothiochroman-4-one]	16 (≈ 58.6 µM)	64 (≈ 234 µM)	8 (≈ 29.3 µM)	32 (≈ 117 µM)	32 (≈ 117 µM)	64 (≈ 234 µM)	32 (≈ 117 µM)	64 (≈ 234 µM)	32 (≈ 117 µM)	32 (≈ 117 µM)	32 (≈ 117 µM)	46.9	45.5	39.4	56.7	45.6	45.5	49.5	86	59	MIC (Terchoderma): 16 µg/mL (≈ 58.6 µM); MIC (gibberella): 16 µg/mL (≈ 58.6 µM); inhibition at 5 µg/mL (A375): 47%; inhibition at 5 µg/mL (CRL-1435PC-3): 47.9%; inhibition at 5 µg/mL (CRL-2233SNU-398): 60.1%; inhibition at 5 µg/mL (HTB-94): 36.7%; inhibition at 5 µg/mL (L428): 50.3%
Cc1ccc2c(c1)C(=O)CSC2 [Compound 13]	–	64 (≈ 359 µM)	64 (≈ 359 µM)	64 (≈ 359 µM)	32 (≈ 180 µM)	16 (≈ 89.8 µM)	32 (≈ 180 µM)	16 (≈ 89.8 µM)	64 (≈ 359 µM)	–	–	45.1	43.8	62.7	57.8	65.5	57.3	56.6	85.6	50.6	MIC (A. niger): 32 µg/mL (≈ 180 µM); inhibition at 5 µg/mL (A375): 74.3%; inhibition at 5 µg/mL (HTB-94): 45.6%; inhibition at 5 µg/mL (L428): 37.5%
O=C1/C(=C\Cl)CSc2ccc(Cl)cc21 [Compound 21, (E)-6-chloro-3-(chloromethylene)thiochroman-4-one]	8 (≈ 32.6 µM)	8 (≈ 32.6 µM)	8 (≈ 32.6 µM)	4 (≈ 16.3 µM)	8 (≈ 32.6 µM)	16 (≈ 65.3 µM)	16 (≈ 65.3 µM)	32 (≈ 131 µM)	16 (≈ 65.3 µM)	32 (≈ 131 µM)	32 (≈ 131 µM)	60.3	35.9	63	55.9	55.6	54.3	54.3	78.4	50	MIC (Terchoderma): 4 µg/mL (≈ 16.3 µM); MIC (gibberella): 8 µg/mL (≈ 32.6 µM); inhibition at 5 µg/mL (A375): 56.9%; inhibition at 5 µg/mL (CRL-1435PC-3): 54.6%; inhibition at 5 µg/mL (CRL-2233SNU-398): 46.7%; inhibition at 5 µg/mL (L428): 52.3%
